According to paper PMC12491701, “Discovery of an APP-selective BACE1 inhibitor for Alzheimer's disease” (Neurotherapeutics, 2025):
Entries after “also recorded” stand apart in the source; their conditions may differ.

Columns and labels:
[1] = biological target: eAPP (Homo sapiens, UniProt P05067); test: APP binding by surface plasmon resonance (SPR); settings: SPR, in words
Procedure: The interaction of FAH3, 17 and 65 were evaluated using the SPR protocol described previously in Descamps et al., [26].
For these pilot experiments eAPP as described in Descamps et al (26) is crosslinked to a the CM5 Biacore chip. FAH3 at various concentration was used in the flow through the chip, and the plasmon resonance signal was determined using a Biacore T100. The raw data uncorrected for contribution of running buffer is fit to equilibrium binding data and corrected for the contribution of the running buffer to
For FAH17 and FAH65-APP binding was determined using SPR to determine competition with BSA that non-specifically binds to the eAPP-Biacore chip.

[2] = biological target: T1, BACE2 (Homo sapiens, UniProt Q9Y5Z0); test: BACE2 activity assay; assay type: biochemical
T1 construct: purchased R&D Systems 4097-AS
T1 sequence (Q9Y5Z0 63-518): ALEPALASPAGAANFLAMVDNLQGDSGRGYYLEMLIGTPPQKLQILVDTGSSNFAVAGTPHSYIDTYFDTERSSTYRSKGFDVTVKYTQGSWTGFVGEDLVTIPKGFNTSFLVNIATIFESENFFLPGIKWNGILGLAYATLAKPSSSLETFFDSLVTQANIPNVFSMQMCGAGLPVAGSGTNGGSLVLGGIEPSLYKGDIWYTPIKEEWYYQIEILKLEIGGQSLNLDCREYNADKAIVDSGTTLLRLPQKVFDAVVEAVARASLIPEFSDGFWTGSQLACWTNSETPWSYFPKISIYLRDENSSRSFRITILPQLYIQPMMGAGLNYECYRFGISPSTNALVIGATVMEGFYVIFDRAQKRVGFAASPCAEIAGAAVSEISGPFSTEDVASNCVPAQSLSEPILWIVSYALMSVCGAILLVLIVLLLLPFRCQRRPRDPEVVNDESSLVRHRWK
Procedure: The effects of candidate ASBIs on BACE2 activity was assessed using the R&D Systems BACE2 activity assay kit (Catalog #: 4097-AS and ES010) formatted from to the manufacturers. For the assay, 4 μL of assay buffer was added to each well, followed by 2 μL of BACE2 diluted in assay buffer to 10 ng/µL.
Then, 2 μL of inhibitor, at the appropriate concentrations were added to the wells and incubated for 30 minutes at room temperature. For all dilutions of inhibitor, drug stock solutions of 10 mM in DMSO were diluted to 50 μM in water; subsequent dilutions were in 0.5% DMSO. Afterwards, 2 μL of fluorogenic BACE2 substrate, diluted to 50 μM in assay buffer, were added to each well, after which the signal generated was read every 30 minutes at 25 °C for 2 hr (Fig S2).
FAH65 and its enantiomers at 10 mM in 100% DMSO was diluted in PBS pH 7.4 to 100, 10, 1, and 0.1 µM; plus, a vehicle-only control. The solutions were incubated at 37 °C for 90 min and centrifuged at 16K x g for 5 min. An aliquot of each supernatant was analyzed by LC-MS/MS. A standard curve was generated by plotting the known amount of analyte per standard in DMSO vs. chromatographic peak […]
Kinetic solubility (µM) was calculated using the trendline equation with maximum chromatographic peak area observed in the aqueous sample. (Table S3)
Liver microsome stability assay […]

eAPP, sequence (P05067 18-701): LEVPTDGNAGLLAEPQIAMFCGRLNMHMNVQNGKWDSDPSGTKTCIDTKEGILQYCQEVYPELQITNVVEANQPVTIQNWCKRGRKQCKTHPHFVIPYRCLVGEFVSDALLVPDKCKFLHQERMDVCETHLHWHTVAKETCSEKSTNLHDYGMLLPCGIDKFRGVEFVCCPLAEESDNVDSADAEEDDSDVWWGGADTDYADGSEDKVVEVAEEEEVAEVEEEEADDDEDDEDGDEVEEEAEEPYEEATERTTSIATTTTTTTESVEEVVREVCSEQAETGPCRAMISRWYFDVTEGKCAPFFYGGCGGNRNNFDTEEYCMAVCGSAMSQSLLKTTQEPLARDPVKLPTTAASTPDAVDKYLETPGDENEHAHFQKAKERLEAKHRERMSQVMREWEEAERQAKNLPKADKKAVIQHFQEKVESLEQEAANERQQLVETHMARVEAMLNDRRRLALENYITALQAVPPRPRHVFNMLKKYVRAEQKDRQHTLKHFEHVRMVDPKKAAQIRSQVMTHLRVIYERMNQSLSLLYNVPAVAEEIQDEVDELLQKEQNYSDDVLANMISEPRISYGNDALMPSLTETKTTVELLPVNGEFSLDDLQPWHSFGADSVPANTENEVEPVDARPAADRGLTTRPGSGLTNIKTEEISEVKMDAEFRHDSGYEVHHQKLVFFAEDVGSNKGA

## Cc1cc(C2(c3cccc(-c4cncnc4)c3)N=C(N)N(C)C2=O)ccc1OC(F)F (stereo not drawn) [FAH65]
[1]
  binding to eAPP: relative to BSA but no KD
[2]
  IC50: > 1000 nM
[2]; in words
  inhibition of BACE2 activity: no inhibition; also recorded: did not inhibit
